# Results published in the supplement of paper PMC4932681.
# How the values were obtained:
# Assay in all cases: viability inhibition at highest dose (% inhibition); higher = more growth inhibition
# BT-474 Tam1 = settings: 4-OH-tamoxifen in medium 1 µM; 72 h
# Method in brief: (§1)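 Breast cancer cell lines and their resistant derivatives were seeded into 384-well plates holding FO2Baq library drugs at five concentrations spanning a 10 000-fold range. Resistant lines were in medium with 1 μM of the selecting drug. Cells were incubated 72 h at 37 °C, and CellTiter-Glo viability was read on a PHERAstar and normalised to vehicle-only and positive controls. Drug sensitivity score, relative IC50 (curve midpoint) and top-dose inhibition came from logistic dose–response fits (Breeze pipeline).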
# BT-474 Tam2 = settings: 4-OH-tamoxifen in medium 1 µM; 72 h
# Method in brief: as §1
# BT-474 = settings: 72 h
# Method in brief: as §1
# MCF-7 Tam1 = settings: 4-OH-tamoxifen in medium 1 µM; 72 h
# Method in brief: as §1
# MCF-7 = settings: 72 h
# Method in brief: as §1
# T-47D Tam1 = settings: 4-OH-tamoxifen in medium 1 µM; 72 h
# Method in brief: as §1
# T-47D Tam2 = settings: 4-OH-tamoxifen in medium 1 µM; 72 h
# Method in brief: as §1
# T-47D = settings: 72 h
# Method in brief: as §1
# ZR-75-1 Tam1 = settings: 4-OH-tamoxifen in medium 1 µM; 72 h
# Method in brief: as §1
# ZR-75-1 Tam2 = settings: 4-OH-tamoxifen in medium 1 µM; 72 h
# Method in brief: as §1
# ZR-75-1 = settings: 72 h
# Method in brief: as §1
SMILES,viability inhibition at highest dose (BT-474 Tam1),viability inhibition at highest dose (BT-474 Tam2),viability inhibition at highest dose (BT-474; 4-OH-tamoxifen in medium 0 µM),viability inhibition at highest dose (BT-474; 4-OH-tamoxifen in medium 1 µM),viability inhibition at highest dose (MCF-7 Tam1),viability inhibition at highest dose (MCF-7; 4-OH-tamoxifen in medium 0 µM),viability inhibition at highest dose (MCF-7; 4-OH-tamoxifen in medium 1 µM),viability inhibition at highest dose (T-47D Tam1),viability inhibition at highest dose (T-47D Tam2),viability inhibition at highest dose (T-47D; 4-OH-tamoxifen in medium 0 µM),viability inhibition at highest dose (T-47D; 4-OH-tamoxifen in medium 1 µM),viability inhibition at highest dose (ZR-75-1 Tam1),viability inhibition at highest dose (ZR-75-1 Tam2),viability inhibition at highest dose (ZR-75-1; 4-OH-tamoxifen in medium 0 µM),viability inhibition at highest dose (ZR-75-1; 4-OH-tamoxifen in medium 1 µM)
COC(=O)c1ccc2c(c1)NC(=O)/C2=C(\Nc1ccc(N(C)C(=O)CN2CCN(C)CC2)cc1)c1ccccc1 [Nintedanib (BIBF 1120)] (drug 10000 nM),30.7,-5.56,5.93,24.8,-3.72,12.4,3.6,-2.42,5.71,-18.3,-16.7,7.5,-3.8,-10.8,-9.4
Oc1ncc(N(CCCl)CCCl)c(O)n1 [Uracil mustard] (drug 10000 nM),6.37,6.63,-4.25,-3.71,-4.85,-11.6,11.6,-0.922,1.54,-4.46,-6.35,3.73,2.56,0.272,-3.68
CC[C@H](CO)Nc1nc(NCc2ccccc2)c2ncn(C(C)C)c2n1 [Seliciclib (Roscovitine)] (drug 10000 nM),-2.39,3.77,-9.62,-8.52,13.8,29,17.2,24.8,23.6,-4.76,-17.1,-5.94,-4.53,-12.8,-9.91
COc1ncc(-c2ccc3nccc(-c4ccnnc4)c3c2)cc1NS(=O)(=O)c1ccc(F)cc1F (drug 1000 nM),98.5,98,90,97.1,60.1,68.6,85,69.3,78,71.6,77.9,83,86.4,76.9,72.3
Oc1ncnc2[nH]ncc12 [Allopurinol] (drug 10000 nM),-0.277,8.84,2.31,19.8,3.95,-21.9,-2.88,5,4.5,0.987,3.06,8.36,-2.7,-2.05,9.69
Nc1nc(F)nc2c1ncn2[C@@H]1O[C@H](CO)[C@@H](O)[C@@H]1O [Fludarabine] (drug 10000 nM),2.46,4.57,-6.6,-12.5,-4.15,-24.7,10,20.4,-0.0717,-8,-12.2,-3.09,-3.77,-0.221,-4.24
c1cc(CN2CCCNCCNCCCNCC2)ccc1CN1CCCNCCNCCCNCC1 [Plerixafor] (drug 2500 nM),3.09,1.19,4.13,-27.6,-8.37,-2.68,1.01,2.69,1.1,-9.65,-11.9,1.99,4.58,-5.05,1.12
Cn1c(=O)c(F)c(Nc2ccc(I)cc2F)c2c(=O)n(C[C@@H](O)CO)cnc21 [TAK-733] (drug 1000 nM),7.81,14.3,3.01,18.7,13.8,16.8,22.9,25.4,16.5,-7.47,-14.5,0.97,-5.15,-7.07,-1.35
Nc1ccn([C@@H]2O[C@H](CO)[C@@H](O)C2(F)F)c(=O)n1 [Gemcitabine] (drug 1000 nM),1.24,-10.3,-11.7,-4.83,-2.89,25.8,4.61,25.9,21.5,32.3,7.44,9.23,11.2,16.9,19.4
CC[C@]1(O)C[C@H]2CN(CCc3c([nH]c4ccccc34)[C@@](C(=O)OC)(c3cc4c(cc3OC)N(C=O)[C@H]3[C@@](O)(C(=O)OC)[C@H](OC(C)=O)[C@]5(CC)C=CCN6CC[C@]43[C@@H]65)C2)C1 [Vincristine] (drug 10000 nM),93.7,84.9,47.4,83.8,12.1,56.6,54.4,68.8,59,16.5,31.2,29.2,35.9,28.7,28.5
Oc1nc(-c2ccc(C(F)(F)F)cc2)nc2c1CSCC2 [XAV-939] (drug 10000 nM),9.15,10.1,2.3,-20.3,-5.47,7.77,11.1,22.1,-6.24,-0.891,1.95,3.25,12.7,5.02,3.5
COc1cc(OC2CCN(C)CC2)ccc1Nc1ncc2c(n1)n(C1CCCC1)c(=O)n2C [AZ 3146] (drug 10000 nM),74.5,25.9,9.21,77.2,11.7,24.5,15,20.1,26.5,27.1,14.1,19.6,24,20.8,22.9
